Laboratory results from patent publication US6605628B1, “Method of using 5-(arysulfonyl)-, 5-(arylsulfanyl)-and 5-(arylsulfanyl)thiazolidine-2,4-diones for inhibition of farnesyl-protein transferase” (Wyeth Holdings Corporation, priority 2001, dated 2003).

Target: T1, FPTase (Homo sapiens, UniProt P49354+P49356)
Test: in vitro FTase Inhibition Assay, K-Ras used as substrate for farnesylation
Assay type: biochemical
Conditions: Table I
Experimental: (§1) Enzyme test procedure: FPTase inhibition in vitro assay was performed according to James, G. L., Brown, M. S., and Goldstein, J. L., Methods in Enzymology, 1995, 255, 38-46; and Garcia, M. A., et al., J. Biol. Chem., 1993, 268, 18415-18420.
(§2) Materials—Purified FPTase (Moomaw, J. F. and Casey, P. J., J. Biol. Chem., 1992, 267, 17438-17443), purified His6-Ras, inhibitor compounds at 10 mg/ml or 10 mM in 100% DMSO, ^3H-FPP (50,000 dpm/pmol) Amersham, TCA/SDS (6%/2%), TCA (6%), Glass fiber filters ([…]), vacuum manifold or 96 well filtration plates.
(§3) Methods—1. Dilute FPTase inhibitors from stock solutions to 2.5× in 2.5% DMSO, 10 mM DTT, 0.5% octyl-B-glucoside. 2. Solution #1 is added to FPTase reaction in a volume of […]. 3. Standard reaction mix, […], contains 50 mM Tris (7.5), 10 mM ZnCl2, 3 mM MgCl2, 20 mM KCl, 5 mM DTT, 0.2% octyl-B-glucoside, 1% DMSO, […] His6-Ras, 10 ng FPTase, and various concentrations of FPTase inhibitors. 4. Incubate for 30-90 min at 25° C. 5. Stop reactions with TCA/SDS (6%/2%), hold at 4° C. for 45-60 min. 6. Filter by manifold or 96 well plate, wash filter 3-5× with TCA (6%). 7. Add scintillant to filters, measure ^3H-FPP incorporation into Ras protein.
(§4) Analysis of Results—Percent inhibition by test compounds is determined by the following:
(§5) (cpm from precipitated Ras with test compounds)−(background cpm)×100=% inhibition.
(§6) (cpm from precipitated Ras without test compounds)−(background cpm)

| IC50 [µM] | Compound |
| --- | --- |
| 0.08 to 0.31 | 5-(4-Iodobenzenesulfonyl)-5-[5-(2-methyl-4-nitrophenyl)pent-4-ynyl]-thiazolidine-2,4-dione [Example 131] |
| 0.02 to 0.22 | 5-[5-(2-Methyl-4-nitrophenyl)pent-4-ynyl]-5-[4-(pyridin-4-yloxy)-benzenesulfonyl]thiazolidine-2,4-dione [Example 128] |
| 1 to 3.6 | 5-[5-(4-Chloro-2-methylphenyl)pent-4-ynyl]-5-(4-trifluoromethoxybenzenesulfonyl)-thiazolidine-2,4-dione [Example 140] |

Target: T1, FPTase
Test: in vitro FTase Inhibition Assay, H-Ras used as substrate for farnesylation
Assay type: biochemical
Conditions: Table I, read-out: IC50 H-Ras*
Experimental: as §1, §2, §3, §4, §5, §6

| IC50 [µM] | Compound |
| --- | --- |
| 0.006 to 0.032 | 5-(4-Iodobenzenesulfonyl)-5-[5-(2-methyl-4-nitrophenyl)pent-4-ynyl]-thiazolidine-2,4-dione [Example 131] |
| 0.001 to 0.032 | 5-[5-(2-Methyl-4-nitrophenyl)pent-4-ynyl]-5-[4-(pyridin-4-yloxy)-benzenesulfonyl]thiazolidine-2,4-dione [Example 128] |
| 0.15 to 0.3 | 5-[5-(4-Chloro-2-methylphenyl)pent-4-ynyl]-5-(4-trifluoromethoxybenzenesulfonyl)-thiazolidine-2,4-dione [Example 140] |
| 0.7 | O=C1NC(=O)C(CCCC#Cc2ccc(Cl)cc2)(Sc2ccc(F)cc2)S1 (stereo not drawn) [Example 96, 5-[5-(4-Chlorophenyl)pent-4-ynyl]-5-(4-fluorophenylsulfanyl)-thiazolidine-2,4-dione] |
| 1.5 | COc1ccc(S(=O)(=O)C2(CC#Cc3cccnc3)SC(=O)NC2=O)cc1 (stereo not drawn) [Example 167, 5-(4-Methoxybenzenesulfonyl)-5-(3-pyridin-3-ylprop-2-ynyl)-thiazolidine-2,4-dione] |
| 0.28 | Cc1ccc(S(=O)(=O)C2(CC#Cc3cccs3)SC(=O)NC2=O)cc1 (stereo not drawn) [Example 168, 5-(3-Thiophen-2-yl-prop-2-ynyl)-5-(toluene-4-sulfonyl)-thiazolidine-2,4-dione] |
| 2.9 | COc1ccc(S(=O)(=O)C2(CCCC#Cc3ccc(Cl)cc3)SC(=O)N(CCCn3ccnc3)C2=O)cc1 (stereo not drawn) [Example 233, 5-[5-(4-Chlorophenyl)pent-4-ynyl]-3-(3-imidazol-1-yl-propyl)-5-(4-methoxybenzenesulfonyl)-thiazolidine-2,4-dione] |

Same assay, conditions: Table II, read-out: IC50 (wi. H-Ras)

| IC50 [µM] | Compound |
| --- | --- |
| 0.7 | O=C1NC(=O)C(CC#Cc2ccc(Cl)cc2)(S(=O)(=O)c2ccc3ccccc3c2)S1 (stereo not drawn) [Example 239, 5-[3-(4-Chloro-phenyl)-prop-2-ynyl]-5-(napthalene-2-sulfonyl)-thiazolidine-2,4-dione] |
| 0.5 | O=C1NC(=O)C(CC#Cc2ccc(Cl)cc2)(S(=O)(=O)c2ccccc2)S1 (stereo not drawn) [Example 240, 5-Benzenesulfonyl-5-[3-(4-chloro-phenyl)-prop-2-ynyl]-thiazolidine-2,4-dione] |
| 1.5 | O=C1NC(=O)C(CC#Cc2ccccc2)(S(=O)(=O)c2ccccc2)S1 (stereo not drawn) [Example 241, 5-Benzenesulfonyl-5-[3-phenyl-prop-2-ynyl]-thiazolidine-2,4-dione] |
| 1 | O=C1NC(=O)C(CC#Cc2ccccc2)(S(=O)(=O)c2ccc(Cl)cc2)S1 (stereo not drawn) [Example 242, 5-(4-Chloro-benzenesulfonyl)-5-(3-phenyl-prop-2-ynyl)-thiazolidine-2,4-dione] |
| 0.3 | O=C1NC(=O)C(CC#Cc2ccc(Cl)cc2)(S(=O)(=O)c2ccc(F)cc2)S1 (stereo not drawn) [Example 243, 5-[3-(4-Chloro-phenyl)-prop-2-ynyl]-5-(4-fluoro-benzenesulfonyl)-thiazolidine-2,4-dione] |
| 0.1 | O=C1NC(=O)C(CC#Cc2ccc(Cl)cc2)(S(=O)(=O)c2ccc(Cl)cc2)S1 (stereo not drawn) [Example 244, 5-(4-Chloro-benzenesulfonyl)-5-[3-(4-chloro-phenyl)-prop-2-ynyl]-thiazolidine-2,4-dione] |
| 0.05 | O=C1NC(=O)C(CC#Cc2ccc(Cl)cc2)(S(=O)(=O)c2ccc(Br)cc2)S1 (stereo not drawn) [Example 245, 5-(4-Bromo-benzenesulfonyl)-5-[3-(4-chloro-phenyl)-prop-2-ynyl]-thiazolidine-2,4-dione] |
| 0.3 | Cc1ccc(S(=O)(=O)C2(CC#Cc3ccc(F)cc3)SC(=O)NC2=O)cc1 (stereo not drawn) [Example 246, 5-[3-(4-Fluoro-phenyl)-prop-2-ynyl]-5-(toluene-4-sulfonyl)-thiazolidine-2,4-dione] |
| 0.3 | Cc1ccc(C#CCC2(S(=O)(=O)c3ccc(C)cc3)SC(=O)NC2=O)cc1 (stereo not drawn) [Example 247, 5-(Toluene-4-sulfonyl)-5-[3-(p-tolyl)-prop-2-ynyl]-thiazolidine-2,4-dione] |
| 0.45 | O=C1NC(=O)C(CC#Cc2ccccc2)(S(=O)(=O)c2ccc(Br)cc2)S1 (stereo not drawn) [Example 248, 5-(4-Bromo-benzenesulfonyl)-5-(3-phenyl-prop-2-ynyl)-thiazolidine-2,4-dione] |
| 0.4 | COc1ccc(S(=O)(=O)C2(CC#Cc3ccc(Cl)cc3)SC(=O)NC2=O)cc1 (stereo not drawn) [Example 249, 5-[3-(4-Chloro-phenyl)-prop-2-ynyl]-5-(4-methoxy-benzenesulfonyl)-thiazolidine-2,4-dione] |
| 1.5 | O=C1NC(=O)C(CC#Cc2ccccc2)(S(=O)(=O)c2ccc3ccccc3c2)S1 (stereo not drawn) [Example 250, 5-(Naphthalene-2-sulfonyl)-5-(3-phenyl-prop-2-ynyl)-thiazolidine-2,4-dione] |
| 0.15 | Cc1ccc(S(=O)(=O)C2(CC#Cc3ccc(C(F)(F)F)cc3)SC(=O)NC2=O)cc1 (stereo not drawn) [Example 251, 5-(Toluene-4-sulfonyl)-5-[3-(4-trifluoromethyl-phenyl)-prop-2-ynyl]-thiazolidine-2,4-dione] |
| 0.08 | COc1ccc(C#CCC2(S(=O)(=O)c3ccc(C)cc3)SC(=O)NC2=O)cc1 (stereo not drawn) [Example 252, 5-[3-(4-Methoxy-phenyl)-prop-2-ynyl]-5-(toluene-4-sulfonyl)-thiazolidine-2,4-dione] |
| 0.09 | Cc1ccc(S(=O)(=O)C2(CC#Cc3ccc(Br)cc3)SC(=O)NC2=O)cc1 (stereo not drawn) [Example 253, 5-[3-(4-Bromo-phenyl)-prop-2-ynyl]-5-(toluene-4-sulfonyl)-thiazolidine-2,4-dione] |
| 0.5 | O=C1NC(=O)C(CC#Cc2ccc(C(F)(F)F)cc2)(S(=O)(=O)c2ccccc2)S1 (stereo not drawn) [Example 254, 5-Benzenesulfonyl-5-[3-(4-trifluoromethyl-phenyl)-prop-2-ynyl]-thiazolidine-2,4-dione] |
| 0.15 | O=C1NC(=O)C(CC#Cc2ccc(F)cc2)(S(=O)(=O)c2ccc(Cl)cc2)S1 (stereo not drawn) [Example 255, 5-(4-Chloro-benzenesulfonyl)-5-[3-(4-fluoro-phenyl)-prop-2-ynyl]-thiazolidine-2,4-dione] |
| 0.8 | Cc1cccc(S(=O)(=O)C2(CC#Cc3ccc(Cl)cc3)SC(=O)NC2=O)c1 (stereo not drawn) [Example 256, 5-[3-(4-Chloro-phenyl)-prop-2-ynyl]-5-(toluene-3-sulfonyl)-thiazolidine-2,4-dione] |
| 0.035 | Cc1ccc(S(=O)(=O)C2(CC#Cc3cccc(Cl)c3)SC(=O)NC2=O)cc1 (stereo not drawn) [Example 257, 5-[3-(3-Chloro-phenyl)-prop-2-ynyl]-5-(toluene-4-sulfonyl)-thiazolidine-2,4-dione] |
| 2 | O=C1NC(=O)C(CC#Cc2ccccc2Cl)(S(=O)(=O)c2ccccc2)S1 (stereo not drawn) [Example 258, 5-Benzenesulfonyl-5-[3-(2-chloro-phenyl)-prop-2-ynyl]-thiazolidine-2,4-dione] |
| 0.15 | O=C1NC(=O)C(CC#Cc2cc(C(F)(F)F)cc(C(F)(F)F)c2)(S(=O)(=O)c2ccccc2)S1 (stereo not drawn) [Example 259, 5-Benzenesulfonyl-5-[3-(3,5-bis-trifluoromethyl-phenyl)-prop-2-ynyl]-thiazolidine-2,4-dione] |
| 0.1 | Cc1ccc(S(=O)(=O)C2(CC#Cc3cc(C(F)(F)F)cc(C(F)(F)F)c3)SC(=O)NC2=O)cc1 (stereo not drawn) [Example 260, 5-[3-(3,5-bis-Trifluoromethyl-phenyl)-prop-2-ynyl]-5-(toluene-4-sulfonyl)-thiazolidine-2,4-dione] |
| 0.3 | O=C1NC(=O)C(CC#Cc2cccc(Cl)c2)(S(=O)(=O)c2ccccc2)S1 (stereo not drawn) [Example 261, 5-Benzenesulfonyl-5-[3-(3-chloro-phenyl)-prop-2-ynyl]-thiazolidine-2,4-dione] |
| 0.07 | Cc1ccc(S(=O)(=O)C2(CC#Cc3ccc(Cl)cc3)SC(=O)NC2=O)cc1 (stereo not drawn) [Example 262] |
| 0.15 | O=C1NC(=O)C(CC#Cc2ccc(Br)cc2)(S(=O)(=O)c2ccc(Cl)cc2)S1 (stereo not drawn) [Example 263, 5-[3-(4-Bromo-phenyl)-prop-2-ynyl]-5-(4-chloro-benzenesulfonyl)-thiazolidine-2,4-dione] |
| 0.3 | O=C1NC(=O)C(CC#Cc2ccc(C(F)(F)F)cc2)(S(=O)(=O)c2ccc(F)cc2)S1 (stereo not drawn) [Example 264, 5-(4-Fluoro-benzenesulfonyl)-5-[3-(4-trifluoromethyl-phenyl)-prop-2-ynyl)-thiazolidine-2,4-dione] |
| 1.5 | O=C1NC(=O)C(CC#Cc2ccc(Cl)cc2)(S(=O)(=O)c2ccc3ccccc3n2)S1 (stereo not drawn) [Example 265, 5-[3-(4-Chloro-phenyl)-prop-2-ynyl]-5-(quinoline-2-sulfonyl)-thiazolidine-2,4-dione] |
| 0.5 | O=C1NC(=O)C(CC#Cc2cc(C(F)(F)F)cc(C(F)(F)F)c2)S1 (stereo not drawn) [Example 266, 5-[3-(3,5-bis-Trifluoromethyl-phenyl)-prop-2-ynyl]-thiazolidine-2,4-dione] |
| 5 | Cc1ccc(SC2(CC#Cc3ccc(Cl)cc3)SC(=O)NC2=O)cc1 (stereo not drawn) [Example 267, 5-[3-(4-Chloro-phenyl)-prop-2-ynyl]-5-(p-tolylsulfanyl)-thiazolidine-2,4-dione] |
